Results published in paper PMC5471912, “Integrated metabolome and transcriptome analysis of Magnolia champaca identifies biosynthetic pathways for floral volatile organic compounds” (BMC Genomics, 2017).

Biological target: T1, McTPS1 (Magnolia champaca, UniProt A0A1Y0BW36)
T1 construct: gene TPS1; full-length ORF (plastid transit peptide apparently kept), N-terminal 6His tag (pDEST17), E. coli BL21 pLysS, Ni-NTA purified
T1 sequence (A0A1Y0BW36 1-581): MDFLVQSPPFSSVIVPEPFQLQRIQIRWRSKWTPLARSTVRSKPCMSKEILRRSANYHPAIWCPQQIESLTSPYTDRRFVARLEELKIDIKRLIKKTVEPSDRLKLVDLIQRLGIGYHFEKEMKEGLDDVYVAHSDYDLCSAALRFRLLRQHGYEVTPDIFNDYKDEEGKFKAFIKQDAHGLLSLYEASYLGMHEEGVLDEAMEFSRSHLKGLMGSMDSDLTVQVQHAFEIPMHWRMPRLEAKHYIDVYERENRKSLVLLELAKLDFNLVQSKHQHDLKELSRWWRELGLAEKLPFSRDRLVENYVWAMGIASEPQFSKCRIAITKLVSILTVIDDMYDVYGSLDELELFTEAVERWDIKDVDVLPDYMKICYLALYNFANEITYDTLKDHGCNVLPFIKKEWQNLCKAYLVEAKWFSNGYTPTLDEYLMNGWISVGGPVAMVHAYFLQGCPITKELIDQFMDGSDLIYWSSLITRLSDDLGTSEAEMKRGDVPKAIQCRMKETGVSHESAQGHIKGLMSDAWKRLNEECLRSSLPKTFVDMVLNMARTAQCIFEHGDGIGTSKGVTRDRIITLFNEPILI
Experiment: in vitro TPS assay, chiral phase GC-MS
Format: biochemical
Details: 25 mM HEPES pH 7.4, 100 mM KCl, 7.5 mM MgCl2, 5 mM DTT (1X of the 2X buffer), 30 °C, 2 h

Structure (SMILES): CC(C)=CCC/C(C)=C/COP(=O)(O)OP(=O)(O)O [geranyl diphosphate]
- in vitro TPS assay, chiral phase GC-MS: McTPS1 reacted with GPP to produce (R)-linalool, a monoterpene alcohol

Structure (SMILES): C=C[C@](C)(O)CCC=C(C)C [(R)-linalool]
- in vitro TPS assay, chiral phase GC-MS (from GPP): our in vitro assays identified McTPS1 as the (R)-linalool synthase
